Where two headings read alike, the source gives them in different places. Values belong to the compound of their own block, whether it stands above or below them.
Molecular target: T1, CFTR (Homo sapiens, UniProt P13569, DEL508-508)
T1 construct: endogenous in cells; host or cells: primary human bronchial epithelial cells from CF subjects (F508del/MF-HBE), differentiated at air-liquid interface
Test: HBE assay: Ussing chamber assay of CFTR-mediated short-circuit currents
Format: cell-based
Conditions: for EC50: read-out: HBE EC50
Outline: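 CFTR-mediated Isc (μA/cm²) equals the peak response to apical 20 μM forskolin minus the residual after a 20 μM each BPO/GlyH-101/CFTR inhibitor 172 cocktail, recorded in Ussing chambers at Vhold 0 mV, 37 °C, pH 7.4, with 30 μM apical amiloride. Cells were F508del/MF HBE cultures preincubated 18-24 h with corrector (concentration range or 10 μM) plus 1 μM ivacaftor in 20% human serum.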

[1] = HBE assay, 10 μM, read-out: HBE Activity at 10 μM (%)
[2] = Table 10, at 10 μM, read-out: HBE activity at 10 (μM) (%)
[3] = Table 11, at 10 μM, read-out: HBE Activity at 10 μM (%)
[4] = Table 10, read-out: HBE Max activity (%)
[5] = Table 12, read-out: HBE Max Activity (%)
[6] = HBE assay, read-out: HBE Max activity (%)
[7] = Table 13, at 10 μM, read-out: HBE Activity at 10 μM (%)
[8] = Table 13, read-out: HBE Max Activity (%)
[9] = Table 12, at 10 μM, read-out: HBE Activity at 10 μM (%)
[10] = Table 11, read-out: HBE Max Activity (%)

T1 sequence (P13569 with tags, fused parts or gaps DEL508-508): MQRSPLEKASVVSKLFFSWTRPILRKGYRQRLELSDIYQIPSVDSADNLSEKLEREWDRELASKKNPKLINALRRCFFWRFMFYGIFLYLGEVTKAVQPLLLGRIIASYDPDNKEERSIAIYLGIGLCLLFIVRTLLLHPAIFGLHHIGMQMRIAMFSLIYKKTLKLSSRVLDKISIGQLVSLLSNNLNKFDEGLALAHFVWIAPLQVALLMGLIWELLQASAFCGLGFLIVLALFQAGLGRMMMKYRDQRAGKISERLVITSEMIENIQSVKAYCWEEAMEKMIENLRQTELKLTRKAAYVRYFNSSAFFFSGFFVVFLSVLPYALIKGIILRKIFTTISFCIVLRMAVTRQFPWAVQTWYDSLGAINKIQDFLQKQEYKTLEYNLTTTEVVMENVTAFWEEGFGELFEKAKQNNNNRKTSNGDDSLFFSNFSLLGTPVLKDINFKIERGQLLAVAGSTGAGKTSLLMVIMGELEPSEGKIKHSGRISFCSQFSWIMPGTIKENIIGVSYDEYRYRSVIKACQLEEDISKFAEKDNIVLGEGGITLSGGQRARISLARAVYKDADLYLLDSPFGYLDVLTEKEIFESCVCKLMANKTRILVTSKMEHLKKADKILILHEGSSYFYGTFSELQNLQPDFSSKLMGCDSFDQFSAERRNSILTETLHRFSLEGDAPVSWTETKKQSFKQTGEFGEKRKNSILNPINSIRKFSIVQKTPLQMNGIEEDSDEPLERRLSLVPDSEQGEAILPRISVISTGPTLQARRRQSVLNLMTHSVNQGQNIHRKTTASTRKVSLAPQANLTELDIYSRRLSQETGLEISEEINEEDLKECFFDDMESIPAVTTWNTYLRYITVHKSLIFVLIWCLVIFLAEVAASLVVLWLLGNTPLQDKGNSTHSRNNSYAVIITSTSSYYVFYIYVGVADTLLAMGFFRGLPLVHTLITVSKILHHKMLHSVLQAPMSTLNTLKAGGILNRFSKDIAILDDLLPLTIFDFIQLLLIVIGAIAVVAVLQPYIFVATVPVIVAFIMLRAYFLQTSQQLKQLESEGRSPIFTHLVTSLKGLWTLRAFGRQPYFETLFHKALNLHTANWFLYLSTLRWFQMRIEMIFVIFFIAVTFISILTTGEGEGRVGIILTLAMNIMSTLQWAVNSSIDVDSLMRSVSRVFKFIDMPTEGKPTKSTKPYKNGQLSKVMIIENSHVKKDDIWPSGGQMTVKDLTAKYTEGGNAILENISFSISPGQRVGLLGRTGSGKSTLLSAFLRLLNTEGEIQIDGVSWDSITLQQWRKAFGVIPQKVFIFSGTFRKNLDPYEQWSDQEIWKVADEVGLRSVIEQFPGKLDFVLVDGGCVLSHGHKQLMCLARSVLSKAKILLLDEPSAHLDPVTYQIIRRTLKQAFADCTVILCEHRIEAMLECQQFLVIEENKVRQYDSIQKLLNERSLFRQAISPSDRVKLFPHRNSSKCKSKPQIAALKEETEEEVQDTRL

SMILES: Cc1cccc(C)c1-c1cc2nc(n1)NS(=O)(=O)c1cccc(c1)C(=O)N(Cc1ncc(OC3CCCOC3)cn1)[C@H](CC(C)C)CO2 (stereo partly shown) [Compound 1433]
- activation at 10 µM [1]: > 60%

SMILES: Cc1cccc(C)c1-c1nc2nc(c1C)OC[C@@H](CC(C)(C)C)N(Cc1ncc(N(C)C)cc1N(C)C)C(=O)c1cccc(c1)S(=O)(=O)N2 [Compound 486]
- activation at 10 µM [2]: > 60%

SMILES: Cc1cccc(O)c1-c1cc2nc(n1)NS(=O)(=O)c1cccc(c1)C(=O)N(Cc1ccc(N3CCOCC3)cn1)[C@H](CC(C)(C)C)CO2 [Compound 333]
- activation at 10 µM [3]: 30 to 60%

SMILES: Cc1cccc(C)c1-c1cc2nc(n1)NS(=O)(=O)c1cccc(c1)C(=O)N(Cc1cccc(-c3c[nH]nc3C3CC3)c1)[C@H](CC(C)(C)C)CO2 [Compound 308]
- EC50 (Table 10): < 1000 nM
- Emax [4]: > 60%

SMILES: Cc1cccc(C)c1-c1nc2nc(c1C)OC[C@@H](CC(C)(C)C)N1Cc3cc(F)c(O)c(F)c3OC1c1cccc(c1)S(=O)(=O)N2 (stereo partly shown) [Compound 763]
- activation at 10 µM [2]: > 60%

SMILES: Cc1cccc(C)c1-c1cc2nc(n1)NS(=O)(=O)c1cccc(c1)C(=O)N(Cc1nc(C(C)C)cn1C)[C@H](CC(C)(C)C)CO2 [Compound 267]
- EC50 (Table 12): < 1000 nM
- Emax [5]: > 60%

SMILES: Cc1cccc(C)c1-c1cc2nc(n1)NS(=O)(=O)c1cccc(c1)C(=O)N(Cc1cc3c(cn1)OCCO3)[C@H](CC(C)(C)C)CO2 [Compound 758]
- activation at 10 µM [3]: > 60%

SMILES: CC[C@@H](C)[C@@H]1COc2cc(-c3c(C)cccc3C)nc(n2)NS(=O)(=O)c2cccc(c2)C(=O)N1Cc1ncc(OC2CCC2)cn1 [Compound 1474]
- EC50 (HBE assay): < 1000 nM
- Emax [6]: > 60%

SMILES: Cc1cccc(C)c1-c1cc2nc(n1)NS(=O)(=O)c1cccc(c1)C(=O)N(Cc1ccc(N(C)C)nc1)[C@H](CC(C)(C)C)CO2 [Compound 529]
- EC50 (Table 10): < 1000 nM
- Emax [4]: > 60%

SMILES: Cc1cccc(C)c1-c1cc2nc(n1)NS(=O)(=O)c1cccc(c1)C(=O)N(Cc1nccc(N(C)C3CCC(C)(C)CC3)n1)[C@H](CC(C)(C)C)CO2 [Compound 435]
- EC50 (Table 13): < 1000 nM
- Emax [8]: > 60%

SMILES: Cc1cccc(C)c1-c1cc2nc(n1)NS(=O)(=O)c1cccc(c1)C(=O)N(Cc1ncccc1-c1c[nH]nc1C1CC1)[C@H](CC(C)(C)C)CO2 [Compound 300]
- activation at 10 µM [2]: > 60%

SMILES: Cc1cccc(C)c1-c1cc2nc(n1)NS(=O)(=O)c1cccc(c1)C(=O)N(Cc1nccc(N3CCCC3(C)C)n1)[C@H](CC(C)(C)C)CO2 [Compound 587]
- EC50 (Table 12): < 1000 nM
- Emax [5]: > 60%

SMILES: Cc1cccc(C)c1-c1cc2nc(n1)NS(=O)(=O)c1cccc(c1)C(=O)N(CC(=O)N1CCC[C@@H](c3ccccc3)C1)[C@H](CC(C)(C)C)CO2 [Compound 180]
- activation at 10 µM [7]: > 600%

SMILES: Cc1cccc(C)c1-c1cc2nc(n1)NS(=O)(=O)c1cccc(c1)C(=O)N(Cc1ncc(OC3CC3)cn1)[C@H](CC(C)(C)C)CO2 [Compound 1129]
- EC50 (Table 13): < 1000 nM
- Emax [8]: > 60%

SMILES: Cc1cccc(C)c1-c1cc2nc(n1)NS(=O)(=O)c1cccc(c1)C(=O)N(CC1CC3(C1)CC(NC(=O)OC(C)(C)C)C3)[C@H](CC(C)C)CO2 (stereo partly shown) [Compound 1004]
- activation at 10 µM [9]: > 600%

SMILES: CNc1ccnc(CN2C(=O)c3cccc(c3)S(=O)(=O)Nc3nc(cc(-c4c(C)cccc4C)n3)OC[C@H]2CC(C)(C)C)n1 [Compound 647]
- EC50 (Table 11): < 1000 nM
- Emax [10]: > 60%

SMILES: Cc1cccc(C)c1-c1cc2nc(n1)NS(=O)(=O)c1cccc(c1)C(=O)N(Cc1cncc(NC3CCCC34CCC4)n1)[C@H](CC(C)(C)C)CO2 (stereo partly shown) [Compound 1348]
- EC50 (HBE assay): < 1000 nM
- Emax [6]: > 60%

SMILES: Cc1cccc(C)c1-c1cc2nc(n1)NS(=O)(=O)c1cccc(c1)C(=O)N(Cc1ncc(N3CCC4(CCC4)C3)cn1)[C@H](CC(C)(C)C)CO2 [Compound 612]
- EC50 (Table 11): < 1000 nM
- Emax [10]: > 60%

SMILES: CC(C)c1cccc(C(C)C)c1-c1cc2nc(n1)NS(=O)(=O)c1cccc(c1)C(=O)N(Cc1ccc(N3CCOCC3)cn1)[C@H](CC(C)(C)C)CO2 [Compound 831]
- Emax [4]: > 60%

SMILES: COc1cnc(CN2C(=O)c3cccc(c3)S(=O)(=O)Nc3nc(cc(-c4c(C)cccc4C)n3)OC[C@H]2CC(C)(C)C)nc1 [Compound 772]
- EC50 (Table 10): < 1000 nM
- Emax [4]: > 60%

SMILES: Cc1cccc(C)c1-c1cc2nc(n1)NS(=O)(=O)c1cccc(c1)C(=O)N(Cc1nccc(C(C)(C)O)n1)[C@H](CC(C)(C)C)CO2 [Compound 813]
- EC50 (Table 11): < 1000 nM
- Emax [10]: > 60%

SMILES: Cc1cccc(C)c1-c1cc2nc(n1)NS(=O)(=O)c1cccc(c1)C(=O)N(Cc1ncc(OC(F)F)cn1)[C@H](CC(C)(C)C)CO2 [Compound 1430]
- EC50 (HBE assay): < 1000 nM
- Emax [6]: > 60%

SMILES: Cc1cccc(C)c1-c1cc2nc(n1)NS(=O)(=O)c1cccc(c1)C(=O)N(Cc1cncc(N3CCCC[C@@H]3C3CC3)n1)[C@H](CC(C)(C)C)CO2 [Compound 1533]
- activation at 10 µM (read-out: HBE Activity at 10 μM (%)): > 60%

SMILES: Cc1cccc(C)c1-c1cc2nc(n1)NS(=O)(=O)c1cccc(c1)C(=O)N(Cc1ncc(OCC(F)(F)F)cn1)[C@H](CC(C)(C)C)CO2 [Compound 1431]
- EC50 (HBE assay): < 1000 nM
- Emax [6]: > 60%

SMILES: Cc1cccc(C)c1-c1cc(O)nc(NS(=O)(=O)c2cccc(C(=O)N(Cc3cccc(N4CCC[C@]4(C)C(=O)O)n3)[C@@H](C)CC(C)(C)C)c2)n1 [Compound 277]
- activation at 10 µM [9]: > 600%

SMILES: Cc1cccc(C)c1-c1cc2nc(n1)NS(=O)(=O)c1cccc(c1)C(=O)N(Cc1ccc(C(C)(C)C)nc1C)[C@H](CC(C)(C)C)CO2 [Compound 528]
- Emax [4]: > 60%

SMILES: Cc1cccc(C)c1-c1cc2nc(n1)NS(=O)(=O)c1cccc(c1)C(=O)N(Cc1ncc(C3CCC3)cn1)[C@H](CC(C)(C)C)CO2 [Compound 635]
- EC50 (Table 11): 3000 to 30000 nM
- Emax [10]: > 60%

SMILES: Cc1cccc(C(C)C)c1-c1cc2nc(n1)NS(=O)(=O)c1cccc(c1)C(=O)N(Cc1ncc(OC(C)C)cn1)[C@H](CC(C)C)CO2 [Compound 241]
- activation at 10 µM [9]: > 600%

Further lines, results first:

- EC50 (Table 10): 1000 to 3000 nM
- Emax [4]: > 60%
SMILES: Cc1cccc(C)c1-c1cc2nc(n1)NS(=O)(=O)c1cccc(c1)C(=O)N(Cc1ccc(C3CCCCC3)cc1)[C@H](CC(C)(C)C)CO2 [Compound 495]

- activation at 10 µM [7]: > 600%
SMILES: Cc1cccc(C)c1-c1cc2nc(n1)NS(=O)(=O)c1cccc(c1)C(=O)N(Cc1ccc(N3CCC(C(C)(C)C)CC3)cn1)[C@H](CC(C)(C)C)CO2 [Compound 258]

- activation at 10 µM [1]: > 60%
SMILES: COC[C@@H]1COCCN1c1cccc(CN2C(=O)c3cccc(c3)S(=O)(=O)Nc3nc(cc(-c4c(C)cccc4C)n3)OC[C@H]2CC(C)(C)C)n1 [Compound 1435]

- EC50 (HBE assay): < 1000 nM
- Emax [6]: > 60%
SMILES: Cc1cccc(C)c1-c1cc2nc(n1)NS(=O)(=O)c1cccc(c1)C(=O)N(Cc1cccc(N(C)C3CCCC3)n1)[C@H](CC(C)(C)C)CO2 [Compound 1355]

- activation at 10 µM [1]: > 60%
SMILES: Cc1cccc(C)c1-c1cc2nc(n1)NS(=O)(=O)c1cccc(c1)C(=O)N(Cc1cccc(N3CCC[C@H]3C3CC3)n1)[C@H](CC1CC1)CO2 [Compound 1501]

- EC50 (Table 11): < 1000 nM
- Emax [10]: > 60%
SMILES: Cc1cccc(C)c1-c1cc2nc(n1)NS(=O)(=O)c1cccc(c1)C(=O)N(Cc1cccc(C3CCC3)n1)[C@H](CC(C)(C)C)CO2 [Compound 626]

- EC50 (Table 11): < 1000 nM
- Emax [10]: > 60%
SMILES: Cc1cccc(C)c1-c1cc2nc(n1)NS(=O)(=O)c1cccc(c1)C(=O)N(Cc1cccc(C3=CCCC3)n1)[C@H](CC(C)(C)C)CO2 [Compound 621]

- EC50 (HBE assay): 1000 to 3000 nM
- Emax [6]: > 60%
SMILES: Cc1cccc(C)c1-c1cc2nc(n1)NS(=O)(=O)c1cccc(c1)C(=O)N(Cc1ncc(OC(C)C)cc1F)[C@H](CC1CC1)CO2 [Compound 1467]

- EC50 (Table 11): < 1000 nM
- Emax [10]: > 60%
SMILES: Cc1ccnc(CN2C(=O)c3cccc(c3)S(=O)(=O)Nc3nc(cc(-c4c(C)cccc4C)n3)OC[C@H]2CC(C)(C)C)c1 [Compound 1070]

- EC50 (HBE assay): 1000 to 3000 nM
- Emax [6]: > 60%
SMILES: CC[C@H](C)Oc1cnc(CN2C(=O)c3cccc(c3)S(=O)(=O)Nc3nc(cc(-c4c(C)cccc4C)n3)OC[C@H]2CC2CC2)nc1 [Compound 1453]

- activation at 10 µM [1]: > 60%
SMILES: CC[C@@]1(CO)CCCN1c1cccc(CN2C(=O)c3cccc(c3)S(=O)(=O)Nc3nc(cc(-c4c(C)cccc4C)n3)OC[C@H]2CC(C)(C)C)n1 (stereo in doubt) [Compound 1459]

- EC50 (Table 11): < 1000 nM
- Emax [10]: > 60%
SMILES: Cc1cccc(C)c1-c1cc2nc(n1)NS(=O)(=O)c1cccc(c1)C(=O)N(Cc1cccc(N(C)CC(C)(C)C)n1)[C@H](CC(C)(C)C)CO2 [Compound 133, (11R)-6-(2,6-Dimethylphenyl)-11-(2,2-dimethylpropyl)-12-[[6-[2,2-dimethylpropyl(methyl)amino]-2-pyridyl]methyl]-2,2-dioxo-9-oxa-2λ^6-thia-3,5,12,19-tetrazatricyclo[12.3.1.14,8]nonadeca-1(18),4(19),5,7,14,16-hexaen-13-one]

- EC50 (Table 12): < 1000 nM
- Emax [5]: > 60%
SMILES: COC[C@@H]1CCCN1c1cccc(CN2C(=O)c3cccc(c3)S(=O)(=O)Nc3nc(cc(-c4c(C)cccc4C)n3)OC[C@H]2CC(C)(C)C)n1 [Compound 275]

- activation at 10 µM [9]: < 30%
SMILES: COc1cccc(C)c1-c1cc2nc(n1)NS(=O)(=O)c1cccc(c1)C(=O)N(Cc1cccc(N3CCCC3C)n1)[C@H](CC(C)(C)C)CO2 (stereo partly shown) [Compound 578]

- activation at 10 µM [9]: > 600%
SMILES: Cc1cccc(C)c1-c1cc2nc(n1)NS(=O)(=O)c1cccc(c1)C(=O)N(Cc1cccc(N3CCCC3C(F)(F)F)n1)[C@H](CC(C)(C)C)CO2 (stereo partly shown) [Compound 549]
